Laboratory results: ChEMBL document CHEMBL4422651, “Revisiting tubercidin against kinetoplastid parasites: Aromatic substitutions at position 7 improve activity and reduce toxicity” (Eur J Med Chem, 2019)
Activity calls are given as the source filed them. The calls are words filed in the database; no cut-off is given here.

Experiments:
Leishmania infantum = assay: Antileishmanial activity against Leishmania infantum amastigotes infected in Swiss mouse primary peritoneal macrophages assessed as reduction in parasite burden after 5 days by Giemsa staining-based microscopic analysis; type: functional, organism-based; conditions: 120 h
[1] = test system: Trypanosoma brucei brucei; assay: Antitrypanosomal activity against Trypanosoma brucei brucei Squib 427 after 48 hrs by alamar blue assay; type: functional, organism-based; conditions: Squib 427, 48 h
[2] = Selectivity index, ratio of EC50 for human MRC5 cells to EC50 for Trypanosoma brucei rhodesiense STIB-900; type: toxicity; conditions: read-out: Ratio EC50
Peritoneal macrophage = assay: Cytotoxicity against Swiss mouse primary peritoneal macrophages assessed as reduction in cell viability after 5 days; type: cell-based; conditions: Mus musculus, Swiss, Peritoneal macrophage, 120 h
[3] = test system: Trypanosoma brucei rhodesiense; assay: Antitrypanosomal activity against Trypanosoma brucei rhodesiense STIB-900 after 48 hrs by alamar blue assay; type: functional, organism-based; conditions: STIB-900, 48 h
MRC5 = assay: Cytotoxicity against human MRC5 cells assessed as reduction in cell viability after 3 days by resazurin dye-based assay; conditions: MRC5, 72 h
Trypanosoma cruzi [4] = assay: Antitrypanosomal activity against nifurtimox-sensitive Trypanosoma cruzi Tulahuen CL2 harboring beta-galactosidase infected in human MRC5 cells after 7 days by resazurin dye-based assay; type: functional, organism-based; conditions: for EC50: Tulahuen CL2, MRC5, 168 h
Trypanosoma cruzi [5] = assay: Potency index, ratio of EC50 for benznidazole to EC50 for test compound for antitrypanosomal activity against nifurtimox-sensitive Trypanosoma cruzi Tulahuen CL2 harboring beta-galactosidase infected in human MRC5 cells after 7 days by resazurin dye-based assay; type: functional
[6] = Selectivity index, ratio of EC50 for human MRC5 cells to EC50 for nifurtimox-sensitive Trypanosoma cruzi Tulahuen CL2 harboring beta-galactosidase; type: toxicity; conditions: read-out: Ratio EC50
[7] = Selectivity index, ratio of EC50 for human MRC5 cells to EC50 for Trypanosoma brucei brucei Squib 427; type: toxicity; conditions: read-out: Ratio EC50
Trypanosoma brucei [8] = assay: Antitrypanosomal activity against wild type Trypanosoma brucei Lister 427 after 48 hrs by alamar blue assay; type: functional, organism-based; conditions: Lister 427, 48 h
Trypanosoma brucei [9] = assay: Antitrypanosomal activity against Trypanosoma brucei TbAT1-KO after 48 hrs by alamar blue assay; type: functional, organism-based
Trypanosoma brucei [10] = assay: Antitrypanosomal activity against pentamidine/diminazene/melaminophenyl arsenical resistant Trypanosoma brucei B48 after 48 hrs by alamar blue assay; type: functional, organism-based; conditions: B48, 48 h
Trypanosoma brucei [11] = assay: Antitrypanosomal activity against isometamidium resistant Trypanosoma brucei ISMR1 after 48 hrs by alamar blue assay; type: functional, organism-based; conditions: ISMR1, 48 h
Trypanosoma congolense = assay: Antitrypanosomal activity against Trypanosoma congolense by resazurin assay; type: functional, organism-based
Trypanosoma brucei [12] = assay: (§1) Inhibition of [3H]-adenosine transport at Trypanosoma brucei Adenosine transporter P1 expressed in pentamidine/diminazene/melaminophenyl arsenical resistant Trypanosoma brucei B48 bloodstream forms after 60 secs by scintillation counting analysis
Trypanosoma brucei [13] = assay: (§2) Inhibition of [3H]-adenosine transport at Trypanosoma brucei Adenosine transporter P2 expressed in pentamidine/diminazene/melaminophenyl arsenical resistant Trypanosoma brucei B48 bloodstream forms after 60 secs by scintillation counting analysis
[14] = as §1
[15] = as §2

| Structure (SMILES) | EC50 [1] [µM] | selectivity ratio [2] | EC50 [3] [µM] | EC50 (MRC5) [µM] | selectivity ratio [7] | Activity (Trypanosoma cruzi [4]) | also measured |
| --- | --- | --- | --- | --- | --- | --- | --- |
| Nc1ncnc2c1c(-c1ccc(Cl)c(Cl)c1)cn2[C@@H]1O[C@H](CO)[C@@H](O)[C@H]1O | 3.07 | 46 | 0.32 | 14.7 | 4.8 |  | EC50 (Leishmania infantum): 1.67 µM; EC50 (Peritoneal macrophage): 20 µM; EC50 (Trypanosoma cruzi [4]): 0.19 µM; Ratio EC50 (Trypanosoma cruzi [5]): <=10; selectivity ratio [6]: 77.4 |
| Nc1ncnc2c1c(-c1cnccn1)cn2[C@@H]1O[C@H](CO)[C@@H](O)[C@H]1O | 1.95 |  |  | 0.55 | 0.28 | inactive |  |
| Nc1ncnc2c1c(-c1ccc(Cl)cc1)cn2[C@@H]1O[C@H](CO)[C@@H](O)[C@H]1O | 7.58 |  |  | 27 | 3.6 |  | Ratio EC50 (Trypanosoma cruzi [5]): <=10; selectivity ratio [6]: 57.4 |
| N=C(N)c1ccc(OCCCCCOc2ccc(C(=N)N)cc2)cc1 [PENTAMIDINE] |  |  |  |  |  |  | EC50 (Trypanosoma brucei [8]): 0.011 µM; EC50 (Trypanosoma brucei [9]): 0.018 µM; EC50 (Trypanosoma brucei [10]): 0.99 µM; EC50 (Trypanosoma brucei [11]): 0.14 µM; EC50 (Trypanosoma congolense): 1.9 µM |
| COc1ccnc(-c2cn([C@@H]3O[C@H](CO)[C@@H](O)[C@H]3O)c3ncnc(N)c23)c1 | 25.5 | 0.9 | 8.15 | 7.59 | 0.3 | inactive |  |
| Nc1ncnc2c1c(-c1ccc(F)cc1)cn2[C@@H]1O[C@H](CO)[C@@H](O)[C@H]1O | 8.81 | > 4.4 | 14.7 | > 64 | > 7.3 |  | EC50 (Trypanosoma cruzi [4]): 0.49 µM; Ratio EC50 (Trypanosoma cruzi [5]): <=10; selectivity ratio [6]: > 130 |
| Nc1ncnc2c1ncn2[C@@H]1O[C@H](CO)[C@@H](O)[C@H]1O |  |  |  |  |  |  | Km (Trypanosoma brucei [12]): 0.16 µM; Km (Trypanosoma brucei [13]): 0.53 µM |
| Nc1ncnc2c1c(-c1ncccn1)cn2[C@@H]1O[C@H](CO)[C@@H](O)[C@H]1O | 2.26 |  |  | 14.3 | 6.3 | inactive |  |
| Nc1ncnc2c1c(-c1cc(Cl)ccn1)cn2[C@@H]1O[C@H](CO)[C@@H](O)[C@H]1O | 8.92 | 4 | 6.88 | 27.3 | 3.1 | inactive |  |
| Nc1ncnc2c1c(-c1cccnc1)cn2[C@@H]1O[C@H](CO)[C@@H](O)[C@H]1O | > 64 |  |  | > 64 |  | inactive | Ki [14]: 21.7 µM; Ki [15]: 49.3 µM |
| CC[n+]1c(-c2ccccc2)c2cc(N/N=N/c3cccc(C(=N)N)c3)ccc2c2ccc(N)cc21 [ISOMETAMIDIUM] |  |  |  |  |  |  | EC50 (Trypanosoma brucei [8]): 0.65 µM; EC50 (Trypanosoma brucei [9]): 0.75 µM; EC50 (Trypanosoma brucei [10]): 0.56 µM; EC50 (Trypanosoma brucei [11]): 3.1 µM |
| Cc1ccc(C(=O)Nc2ccc(S(=O)(=O)O)c3cc(S(=O)(=O)O)cc(S(=O)(=O)O)c23)cc1NC(=O)c1cccc(NC(=O)Nc2cccc(C(=O)Nc3cc(C(=O)Nc4ccc(S(=O)(=O)O)c5cc(S(=O)(=O)O)cc(S(=O)(=O)O)c45)ccc3C)c2)c1 [SURAMIN] | 0.05 | > 1600 | 0.04 | > 64 | > 1280 |  |  |
| Nc1ncnc2c1c(-c1cc3ccccc3cn1)cn2[C@@H]1O[C@H](CO)[C@@H](O)[C@H]1O | 14.7 | > 10 | 6.16 | > 64 | > 4.4 | inactive |  |
| Cc1ccnc(-c2cn([C@@H]3O[C@H](CO)[C@@H](O)[C@H]3O)c3ncnc(N)c23)c1 | 38.2 | > 2.5 | 25.1 | > 64 | > 1.7 | inactive |  |
| Nc1ncnc2c1c(-c1cc(Cl)cc(Cl)c1)cn2[C@@H]1O[C@H](CO)[C@@H](O)[C@H]1O | 8.17 | > 17 | 3.66 | > 64 | > 7.8 | inactive |  |
| Nc1ncnc2c1c(-c1ccc(Cl)cn1)cn2[C@@H]1O[C@H](CO)[C@@H](O)[C@H]1O | 8.97 | > 13 | 4.6 | > 64 | > 7.1 | inactive |  |
| Nc1ncnc2c1c(-c1ccc3ccccc3c1)cn2[C@@H]1O[C@H](CO)[C@@H](O)[C@H]1O | 7.83 | 1.2 | 6.79 | 7.53 | 0.96 | inactive |  |
